Data published in the COVID Moonshot data (paper PMC11187573), “Identification of SARS-CoV-2 Mpro inhibitors through deep reinforcement learning for de novo drug design and computational chemistry approaches” (RSC Medicinal Chemistry, 2024).

What was measured:
[1] = molecular target: SARS-CoV-2 Main Protease (SARS-CoV-2) (UniProt P0DTD1)
[2] = molecular target: SARS-CoV-2 Main Protease (SARS-CoV-2) (UniProt P0DTD1); remark: listed apart in the source
Description: Briefly, compounds were seeded into assay-ready plates (Greiner 384PP, cat# 781280) using an ECHO 650T dispenser and DMSO was back-filled for a uniform concentration in assay plates (DMSO concentration < 1%, final volume = 500 nL.). […] After a quick centrifugation step (1000 rpm, 15 s) the plate is incubated for 15 min at room temperature. […] After centrifugation (1000 rpm, 14 s) the reaction is incubated for 10 min (11-mer) or 5 min (37-mer) at room temperature before quenching with 10 % formic acid. The reactions are analysed with MS using RapidFire (RF) 365 high-throughput sampling robot (Agilent) connected to an iFunnel Agilent 6550 accurate mass quadrupole time-of-flight (Q-TOF) mass spectrometer using electrospray. […] Dose response curves uses an 11-point range of 100--0.0017 µM inhibitor concentrations. RapidFire integrator software (Agilent) was used to extract the charged states from the total ion chromatogram data followed by peak integration. For the 11-mer peptide the m/z (+1) charge states of both the substrate (1191.67 Da) and cleaved N-terminal product TSAVLQ (617.34 Da) were used and the 37-mer peptide the m/z (+2) charge states of the substrate (3960.94 Da) and m/z (+1) of the cleaved C-terminal product [sequence] (1125.57 Da). Percentage conversion (product peak integral / (product peak integral + substrate peak integral))*100) and percentage inhibitions were calculated and normalised against DMSO control with deduction of any background signal in Microsoft Excel. IC50s were calculated using Levenberg–Marquardt algorithm used to fit a restrained Hill equation to the dose-response data with both GraphPad PRISM and CDD.

| SMILES | relative solubility at 20 uM | relative solubility at 100 uM | inhibition ([1]; 20.0 µM) | inhibition ([1]; 50.0 µM) | inhibition ([2]; 20.0 µM) | inhibition ([2]; 50.0 µM) | IC50 [2] |
| --- | --- | --- | --- | --- | --- | --- | --- |
| C#Cc1cccc(N(C(=O)C=C)C(C(=O)NC(C)(C)C)c2cccnc2)c1 (stereo unspecified) | 1 | 1.01 | -3.84% | 3.7% | 0% |  |  |
| Cc1cc(-c2nc3ccccc3[nH]2)ccc1O | 0.99 | 1 | -10.3% | -36.8% |  | -3.73% |  |
| Cc1ccncc1NC(=O)Cc1cccc(F)c1 | 1.01 | 1 | 39.6% | 65.3% |  | 40.9% |  |
| Cc1ccncc1NC(=O)Cc1cccc(I)c1 | 1 | 1 | 17.4% | 39.7% |  | 64.3% | 69.1 µM |
| O=C(c1cc(=O)[nH]c2ccc(F)cc12)N1CCN(S(=O)(=O)c2cccc(Cl)c2)CC1 | 0.98 | 0.87 | 1.39% | 25.7% |  | 52.8% |  |
| O=C(Nc1cccnc1)c1cc(Cl)ccc1-c1ccccc1 | 1 | 0.97 | 47.4% | 60.4% | 2.13% |  |  |
| Cc1ccc(NCc2cc(NC(=O)OC(C)(C)C)ccc2Br)cn1 | 0.9 | 0.7 | -3.3% | 9.52% |  | 35.9% |  |
| C=C(CN(C)C)C(=O)N1Cc2ccccc2C(c2ccccc2)C1 (stereo unspecified) | 1 | 0.97 | 0.735% | 10.3% | 0% |  |  |
| C=CC(=O)N(c1ccc(C(C)(C)C)cc1)C(C(=O)NC(C)(C)C)c1cncc(OC)c1 (stereo unspecified) | 1 | 0.99 | -13.4% | -6.87% | 0.0741% | 8.47% |  |
| C=CC(=O)N(c1ccc(N(C)C)c(C)c1)C(C(=O)Nc1cccc(CC)c1)c1cccnc1 (stereo unspecified) | 0.85 | 0.68 | 7.05% | 11.7% | 0% |  |  |
| Cc1cccc(NC(=O)C(C#N)C(=O)CC(C)C)c1 (stereo unspecified) | 1 | 1 |  | -0.258% | 0% | 0% |  |
| CS(=O)(=O)NCCc1ccccc1O | 1 | 1 |  | 14.4% | 0% | 0% |  |
| Cc1ccncc1NC(=O)[C@@]12COC[C@@H]1C2 (stereo in doubt) | 1 | 1 | -0.441% | -2.2% |  | 0% |  |
| O=C(c1cc(=O)[nH]c2ccc(F)cc12)N1CCN(S(=O)(=O)c2ccccc2Cl)CC1 | 0.98 | 0.93 | 19.5% | 35.1% |  | 39.8% |  |
| C=CC(=O)N(c1ccc(C(C)(C)C)cc1)C(C(=O)NC(C)(C)C)c1cncc(Br)c1 (stereo unspecified) | 0.99 | 0.97 | 14.6% | -13.8% | 0% | 0% |  |
| C=CC(=O)N(c1ccc(C(C)(C)C)cc1)C(C(=O)Nc1ccccc1OC)c1cccnc1 (stereo unspecified) | 0.97 | 0.95 | 26.3% | 44.2% | 0% | 25.4% |  |
| C=CC(=O)N1CCCN(Cc2ccccc2)CC1 | 1 | 1 | 0.947% | 9.99% | 0% |  |  |
| C=CC(=O)N(c1ccc(C(C)(C)C)cc1)C(C(=O)NCC1CCOC1)c1cccnc1 (stereo unspecified) | 1 | 0.99 | 25.7% | 41.3% | 1.1% | 29.4% |  |
| O=C1Nc2c(Br)cccc2C1=O | 0.99 | 0.81 | -4.89% | -4.45% |  | 67.4% | 43.1 µM |
